Experimental data from patent publication US20230338297A1, “Encapsulated Agents that Bind to MCT-1” (THE JOHNS HOPKINS UNIVERSITY, priority 2020, published 2023).

Legend:
MCT-1 = molecular target: T1, MCT-1 (Homo sapiens, UniProt P53985); type: cell-based
T1 construct: endogenous in cells
T1 sequence (P53985 1-500): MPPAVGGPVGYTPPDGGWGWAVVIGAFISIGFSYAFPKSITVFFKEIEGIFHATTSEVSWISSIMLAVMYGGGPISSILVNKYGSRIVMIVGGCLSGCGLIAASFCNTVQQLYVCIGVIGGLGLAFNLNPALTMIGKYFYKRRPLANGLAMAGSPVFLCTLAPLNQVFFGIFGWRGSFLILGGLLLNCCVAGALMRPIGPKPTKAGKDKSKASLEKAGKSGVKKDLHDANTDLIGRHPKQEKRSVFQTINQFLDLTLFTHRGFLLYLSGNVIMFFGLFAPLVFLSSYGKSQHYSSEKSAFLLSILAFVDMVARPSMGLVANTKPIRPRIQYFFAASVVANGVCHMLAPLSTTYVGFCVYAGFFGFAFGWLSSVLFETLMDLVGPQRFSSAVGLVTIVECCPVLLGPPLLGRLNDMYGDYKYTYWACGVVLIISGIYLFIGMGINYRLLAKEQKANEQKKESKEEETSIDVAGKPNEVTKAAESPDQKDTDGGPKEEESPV
T1 sequence (P35613 140-385 partner limits assumed): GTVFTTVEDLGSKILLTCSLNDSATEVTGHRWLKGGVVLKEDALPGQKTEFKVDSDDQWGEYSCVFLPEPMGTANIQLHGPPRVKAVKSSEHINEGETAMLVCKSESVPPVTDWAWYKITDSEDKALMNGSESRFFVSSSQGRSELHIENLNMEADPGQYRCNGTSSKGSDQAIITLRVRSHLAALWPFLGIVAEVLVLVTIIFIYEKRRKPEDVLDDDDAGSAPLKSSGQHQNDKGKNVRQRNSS
Source text: To gain insight into this lack of sensitivity, the expression levels of three cell surface channels, GLUT-1 (Yu, M. et al. The prognostic value of GLUT1 in cancers: a systematic review and meta-analysis. Oncotarget 8, 43356-43367, doi:10.18632/oncotarget.17445 (2017)), MCT-1 and MCT-4 (Hong, C. S. et al. MCT1 Modulates Cancer Cell Pyruvate Export and Growth of Tumors that Co-express MCT1 and MCT4. Cell Reports 14, 1590-1601, doi:10.1016/j.celrep.2016.01.057 (2016)) were compared in all 7 pancreatic cancer cell lines using RNA expression atlas (FIG. 4A). While neither GLUT1 (primarily responsible for glucose uptake and therefore, the FDG-PET positive phenotype) nor MCT-4 expression levels of CFPAC-1 were lower than other cell lines in the panel, expression levels of MCT-1 in CFPAC-1 (22 TPM) was nearly three-fold lower than the next lowest expressor (BxPC-3, 64 TPM) in the cell line panel (FIG. 4B). […]

DLD-1 MCT-1(-) cells = assay: effect of MCT-1 loss on sensitivity: DLD-1 MCT-1(-) knock-out cells; type: cell-based, human; conditions: even at 200 uM
Description: (§1) The Alt-R CRISPR system (Integrated DNA Technologies, IDT) was used to delete SLC16A1, the gene encoding for the MCT-1 protein, in the DLD-1 and MiaPaCa-2 cell lines. The gRNA sequence was designed using CHOPCHOP v.3 12. Briefly, Alt-R CRISPR Cas9 crRNAs ([…], IDT; SEQ ID NO:1) and Alt-R CRISPR-Cas9 tracrRNA (1072532, IDT) were re-suspended at 100 μM with Nuclease-Free Duplex Buffer (IDT). The crRNAs and tracrRNA were mixed at a 1:1 molar ratio and denatured for 5 min at 95° C., followed by slow cooling to room temperature to duplex prior to mixing with Cas9 Nuclease (1081059, IDT) at a 1.2:1 molar ratio for 15 min. Forty pmoles of the Cas9 ribonucleoprotein (RNP) containing tracrRNA/MCT-1 crRNA duplex were mixed with 2×10^5 DLD-1 cells in 20 μL of OptiMEM (31985088, ThermoFisher Scientific). This mixture was loaded into a 0.1 cm cuvette (1652089, Bio Rad) and electroporated at 120 V for 16 ms using an ECM 2001 (Harvard Apparatus). Cells were immediately transferred to complete growth medium and cultured for one week. Upon reaching confluence, polyclonal pools were plated at a density of 0.5 to 2 cells per well in 96-well plates and cultured for 3 weeks. Single colonies were transferred into 2 replica 96-well plates. […]

DLD-1 parental cells = assay: effect of MCT-1 loss on sensitivity: DLD-1 parental cells; type: cell-based, human; conditions: 0-200 uM
Description: as §1

MiaPaCa-2 cells = assay: rapid induction of cell death, timed exposure and washout of MiaPaCa-2 cells; type: cell-based, human
Description: Representative pancreatic cancer cells MiaPaCa-2 (MCT-1: 163 TPM, Expression Atlas) were plated in a 96 well plate at 12,000 cells/well. These cells were then exposed to a 2-fold dilution series of sCD-3BP and free 3BP for different amounts of time (exposure time: 15 minutes, 30 minutes, 1 hour, 2 hours, 4 hours and 8 hours) and their outcome recorded by Incucyte® Live-Cell Analysis Systems, over 36 hours. After the desired timed exposure, cells were washed with PBS and fresh media was added to ensure no more drug persisted in the respective wells. […] The IC50 of both agents was calculated to be 84-90 uM when cells were exposed to the drug for only 15 minutes. […] While treated cells looked initially healthy following drug washout, cell death became discernable 24 hours post exposure.

[1] = stability of CD-3BP complexes and free 3BP in sera, residual 3BP by cell toxicity assay (HCT-116); type: in vitro ADME, human; conditions: incubated with sera at 37° C. for up to 8 hours
Source text: However, how microencapsulation in CD alters the solubility and stability of 3BP and whether chemical modifications of CDs can alter physicochemical characteristics of the drug remains unclear. To address these questions and clarify the biological effect of microencapsulation, an assay was designed to estimate the stability of various CD-3BP complexes when compared to free 3BP in human sera.
Two different types of complexes, the previously used sCD-3BP (Chapiro, J. et al., Clinical cancer research: An official journal of the American Association for Cancer Research 20, 6406-6417, doi:10.1158/1078-0432.ccr-14-1271 (2014)) and newly generated HPCD-3BP were compared side-by-side. […] Aliquots were collected at various time points and assessed for residual 3BP by a cell toxicity assay. […]
Free 3BP, sCD-3BP and HPCD-3BP were incubated at various concentrations (12.5 μM, 25 μM, 50 μM, 100 μM and 200 μM) with 90 μL of mouse sera at 37° C. for up to 8 hours. […] Un-degraded biologically active 3BP at each time was then assessed by a cell toxicity assay. […] Cell death was measured by imaging cells after 72 hours using the IncuCyte® Live Cell-Analysis System (Essen Bioscience) and using the CellTox™ Green Cytotoxicity Assay (Promega), following the manufacturer's recommendation. […]

Cc1[nH]nc(C(F)(F)F)c1Cc1sc2c(c1C(=O)N1C[C@](C)(O)CO1)c(=O)n(C)c(=O)n2C(C)C [AZD3965]
rescue of cells from CD-3BP mediated cytotoxicity (MCT-1): clear dose dependent rescue

O=C(O)C(=O)CBr [3BP, 3-bromopyruvate]
loss of viability (DLD-1 MCT-1(-) cells): no loss of viability
cell death (DLD-1 parental cells): dramatic cell death
potency at killing MiaPaCa-2 cells, sCD-3BP compared with 3BP (MiaPaCa-2 cells): equally potent
stability / protection against degradation in sera ([1]; listed as Free 3BP): rapidly degraded
stability / protection against degradation in sera ([1]; listed as free 3BP): rapid degradation
